Results published in US20240009172A1, “COMPOSTIONS AND METHODS FOR TREATING PROSTATE CANCER” (The Regents of the University of Michigan, priority 2022, published 2024).

Assays:
[1] = tested on: CRPC tumor biopsy transcriptome; experiment: RNA-sequencing differential gene expression (DESeq2), progression versus baseline in converters; parameters: species or system human; settings: progression vs baseline samples from the three converters
Procedure: (§1) Methods for tissue collection have been described previously 48.
Core biopsy samples were flash frozen in Optical Cutting Temperature (OCT) for gene expression analysis. Laser capture microdissection was performed on frozen sections to enrich for tumor content 49. Total RNA was isolated (Stratagene Absolutely RNA Nano Prep) (RIN>8) and amplified using NuGEN Ovation RNA seq System V2. Libraries were generated using NuGEN Ovation Ultralow System V2 for Illumina sequencing. RNA seq was performed on the Illumina NextSeq 500, PE75 with at least 100M read pairs. The raw fastq files were first quality checked using FastQC (version 0.11.8) software (http://www.bioinformatics.bbsrc.ac.uk/projects/fastqc/). Fastq files were aligned to hg38 human reference genome and per-gene counts and transcripts per million (TPM) quantified by RSEM 50 (version 1.3.1) based on the gene annotation gencode.v28.annotation.gtf.
Differential expression gene, pathway, and master regulator analysis Differential gene expression analysis was performed using DESeq2 (version 1.22.2). Gene expression differences were considered significant if passing the following criteria: adjusted P-value <0.05, absolute fold change >1.5. For the converter vs non-converter baseline sample comparison, we used the adjusted P-value <0.1. […]

CRPC tumors = experiment: Aggarwal cluster designation and Labrecque classification of progression tumors (lineage plasticity); parameters: species or system human; settings: 3/21 progression tumors (Aggarwal cluster 2, DNPC by Labrecque)
Procedure: The unsupervised analysis from Aggarwal, et al. 25 identified five clusters using 119 samples. That study identified 528 genes that were the most differentially expressed between the clusters. Using that gene list, cluster assignments for new samples included in this matched biopsy cohort were determined without replicating the unsupervised analysis. First, the sample batch effect between the samples from the previous study and those from the current study was addressed with exponential normalization on the expression data of all samples—old and new. Exponential normalization is a per-sample operation that fits the expression of all genes to a unit exponential distribution. […]
To determine the Labrecque classification, a 26 gene signature used previously to define five phenotypic categories of CRPC 24 was applied: AR-high prostate cancer (ARPC), amphicrine prostate cancer, AR-low prostate cancer (ARLPC), double-negative prostate cancer (DNPC), and neuroendocrine prostate cancer (NEPC) 24. […] Samples were assigned to the phenotype groups by clustering using Euclidean distance calculated by the dist function and visualization using classical multidimensional scaling (MDS) calculated with the cmdscale function in R using the log2(TPM+1) transformed expression profiles of the remaining 25 genes.

[2] = tested on: metastatic, castration-resistant prostate cancer; experiment: Enzalutamide treatment of WCDT patients with matched biopsies: PSA response and time on treatment; format: in vivo, human; parameters: PSA Change at 12 weeks: unit not given here
Procedure: as §1
By examining the Stand Up to Cancer Foundation/Prostate Cancer Foundation West Coast Dream Team (WCDT) prospective cohort, 21 patients with CRPC who underwent a metastatic tumor biopsy prior to enza and a repeat biopsy at the time of progression and whose tumor cells underwent RNA-sequencing after laser capture microdissection were identified. All progression biopsies were performed prior to discontinuing enza, enabling one to identify resistance mechanisms induced by continued enza treatment.
Bone was the most common site for both pre-treatment and progression biopsies. Eighteen of 21 patients had the same tissue type biopsied at progression. In eight patients, the exact same lesion was biopsied at baseline and progression (FIG. 1B, Table 3). The median time on enza treatment was 226 days.

For `CNC(=O)c1ccc(N2C(=S)N(c3ccc(C#N)c(C(F)(F)F)c3)C(=O)C2(C)C)cc1F` [enzalutamide], the “expression of AR, AR target genes (KLK2, KLK3, TMPRSS2) and HOXB13” value [1] was “markedly decreased expression”, the “enza-induced lineage plasticity and conversion to an AR-independent program, frequency of tumors” value (CRPC tumors) was 14% and the “median time on enza treatment” value ([2]; 21 patients) was 226 days. The “Median time on enzalutamide, days (SD)” value ([2]; Table 2, n = 21 patients) was 261 days, the “50% PSA response to enzalutamide” value ([2]; number of patients, n = 21) was 7 and the “PSA Change at 12 weeks” value ([2]; patient DTB_024) was 75.05. The “PSA Change at 12 weeks” value ([2]; patient DTB_060) was −20.41, the “PSA Change at 12 weeks” value ([2]; patient DTB_063) was −74.64 and the “PSA Change at 12 weeks” value ([2]; patient DTB_073) was 156.81. The “PSA Change at 12 weeks” value ([2]; patient DTB_080) was −28.48, the “PSA Change at 12 weeks” value ([2]; patient DTB_089) was 181.18 and the “PSA Change at 12 weeks” value ([2]; patient DTB_098) was −83.74. For the same molecule, the “PSA Change at 12 weeks” value ([2]; patient DTB_102) was −93.02, the “PSA Change at 12 weeks” value ([2]; patient DTB_111) was 113.99 and the “PSA Change at 12 weeks” value ([2]; patient DTB_127) was 169.29. For the same molecule, the “PSA Change at 12 weeks” value ([2]; patient DTB_135) was 164.26, the “PSA Change at 12 weeks” value ([2]; patient DTB_137) was −10.85 and the “PSA Change at 12 weeks” value ([2]; patient DTB_141) was −81.04. The “PSA Change at 12 weeks” value ([2]; patient DTB_149) was −80.29, the “PSA Change at 12 weeks” value ([2]; patient DTB_167) was −88.38 and the “PSA Change at 12 weeks” value ([2]; patient DTB_176) was −64.76. The “PSA Change at 12 weeks” value ([2]; patient DTB_194) was 100.36, the “PSA Change at 12 weeks” value ([2]; patient DTB_210) was −83.36 and the “PSA Change at 12 weeks” value ([2]; patient DTB_232) was −0.55. For the same molecule, the “PSA Change at 12 weeks” value ([2]; patient DTB_265) was 5.84.
